# According to US5162336A, “Tetrahydro-pyrido-indoles as cholecystokinin and gastrin antagonists” (Rhone-Poulenc Rorer Pharmaceuticals Inc., priority 1990, dated 1992):
# Target: T1, Gastrin receptor (Cavia porcellus, UniProt H0VZC5)
# T1 construct: The fundic mucosa is gently scraped off the submucosa; from tissue; host or cells: gastric glands from fundic mucosa of Hartley guinea pig
# T1 sequence (H0VZC5 1-426): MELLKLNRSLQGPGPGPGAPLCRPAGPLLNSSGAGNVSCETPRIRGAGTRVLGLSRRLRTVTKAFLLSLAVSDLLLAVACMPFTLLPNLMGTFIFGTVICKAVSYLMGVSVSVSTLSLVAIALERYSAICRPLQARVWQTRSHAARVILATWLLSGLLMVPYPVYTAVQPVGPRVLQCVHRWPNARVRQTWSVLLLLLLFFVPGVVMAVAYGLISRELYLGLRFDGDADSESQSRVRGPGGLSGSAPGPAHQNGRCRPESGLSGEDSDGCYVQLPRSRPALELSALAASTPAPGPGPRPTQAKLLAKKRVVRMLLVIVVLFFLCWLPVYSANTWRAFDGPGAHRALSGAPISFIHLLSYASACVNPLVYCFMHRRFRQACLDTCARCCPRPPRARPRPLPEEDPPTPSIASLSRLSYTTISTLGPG
# Assay: Gastrin receptor binding assay (displacement of 125I-(Leu-15)-Gastrin from guinea pig fundic glands)
# Design: species or system guinea pig (Hartley Strain)
# Conditions: guinea pig fundic mucosa glands, 25° C., 30 min, read-out: In vitro Binding Data IC50 Gastrin
# Description: (a) Phosphate Buffered Saline (PBS): 8.743 g NaCl, 523 mg K2 HPO4 and 76.8 mg NaH2 PO4 is dissolved in 1.0 liter of deionized water and the pH of the solution is adjusted to 7.3 with 5N NaOH.
# (b) Buffer A: While adding Basal Medium Eagle (BME) containing Earle's Salts, L-glutamine and 25 mM HEPES, 3 liters of deionized water is stirred, followed by the addition and dissolution of […] of sodium bicarbonate. The solution is then equilibrated with 95% O2 /5% CO2 gas followed by titration to a pH of 7.4 with NaOH.
# (c) Buffer B: 18.75 mg of collagenase and […] of BSA is dissolved in 25 ml of Buffer A.
# (d) Buffer C: 0.3 g of BSA is dissolved in 300 ml of Buffer A.
# (e) 6.25 mg Bacitracin is dissolved in 25 ml of Buffer A.
# (f) ^125 I-(Leu-15)-Gastrin: 100 microcurie dissolved in 2.0 ml of Buffer A to make 50 microcurie/ml.
# (g) ^125 I-(15-methionine)-Human Gastrin: 50 microcurie/ml.
# (h) (Leu 15)-Gastrin: 5.2 mg of (Leu-15)- Gastrin is dissolved in 10 ml of Buffer A. At the time of assay 1:10 dilution is made and 10 μl assay tube is used.
# A guinea pig (Hartley Strain) weighing 150-200 grams, is sacrificed by CO2 asphyxiation and the stomach immediately excised, cut along the greater curvature, cleaned out and immediately immersed in a beaker containing cold PBS, pH 7.3, to insure thorough cleaning. The fundic mucosa is gently scraped off the submucosa and added to a preweighed 50 ml plastic centrifuge tube containing 30 ml of cold Buffer A. The weight of the plastic centrifuge tube containing the buffer is then subtracted from the combined weight of the mucosa and the buffer-containing tube to give the weight of the mucosa. The weight of the mucosa thus determined is recorded for later calculations.
# The mucosa is then washed twice in Buffer A. After the final wash, the tissue is minced and is placed in a 100-ml glass beaker containing about 1.0 ml of Buffer A, and washed twice again by repeated centrifugation at 50×g for 5 minutes each and aspiration of supernatant. The washed tissue fragments are then added to a glass Erlenmeyer flask containing 25 ml of Buffer B and incubated in a Dubnoff shaking water bath at 37° C. for 30 minutes in a 95% O2 - 5% CO2 atmosphere. After the incubation, the digested tissue fragments in the Collegenase-buffer solution are triturated, filtered through a 200-micron nylon mesh and centrifuged at 50×g for 5 minutes. The supernatant is aspirated and discarded, the tissue washed 2× in Buffer C, resuspended in same buffer, incubated in a 37° C. water bath in an atmosphere of 95% O2 - 5% CO2 for 5 minutes, and centrifuged. The pelleted glands are suspended in Buffer D at a desired concentration of 2x10^5 glands/ml to use in the receptor binding assay.
# Six minisorp tubes (16×100 mm) are serially marked and divided into two groups thus: tubes #1, #2, and #3 are marked "T" for "Totals" and tubes #4, #5, and #6 are marked "NS" for "Non-Specifics." Into each of the six tubes are added 220 μl of prepared glands in Buffer D; 20 μl of Buffer A in tubes #1, #2, and #3; 10 μl, in tubes #4, #5 and #6; (10μ of (Leu-15)-Gastrin (25 μM) in tubes #4, #5, and #6. The six tubes are then transferred immediately to a 25° C. water bath and challenged each with 10 μl ^125 I-(Leu-15)-Gastrin diluted as per calculation. The tubes are then covered with a gas hood connected to a 95% O2 - 5% CO2 gas source and mechanically agitated in a shaker for 30 minutes.
# At the end of the incubation period, the assay mixtures are each filtered through a Whatman glass fiber filter B on a Brandel tissue harvester and washed twice with Buffer A. The filters are pre-soaked in Buffer C before use. The filter strips are removed after the final wash and individual filters counted in a Gamma Counter. The counts from the "Non-Specific" tubes are then averaged and subtracted from the average "Totals" to give the Specific Counts. […]
row,Compound,IC50 [µM]
1,"NC(=O)[C@H](CC(=O)O)NC(=O)[C@H]1Cc2c([nH]c3ccccc23)CN1 [Example 3, N-[(3R)-1,2,3,4-tetrahydro-9H-pyrido[3,4-b]-indole-3-carboxyl]-L-aspartic acid amide]",> 300
2,"NC(=O)[C@H](CC(=O)O)NC(=O)[C@@H]1Cc2c([nH]c3ccccc23)CN1 [Example 4, N-[(3S)-1,2,3,4-tetrahydro-9H-pyrido[3,4-b]indole-3-carboxyl]-L-aspartic amide]",> 300
3,"O=C(NC(c1ccccc1)c1ccccc1)[C@H]1Cc2c([nH]c3ccccc23)CN1 [Example 6, (3R)-3-diphenylmethylcarbamoyl-1,2,3,4-tetrahydro-9H-pyrido[3,4-b]indole]",60
4,"NC(=O)[C@H](CC(=O)O)NC(=O)[C@H]1Cc2c([nH]c3ccccc23)CN1C(=O)c1ccccc1 [Example 8, N-[(3R)-2-benzoyl-1,2,3,4-tetrahydro-9H-pyrido[3,4-b]indole-3-carboxyl]-L-aspartic acid amide]",78
5,"CCCCCN(CCCCC)C(=O)[C@H]1Cc2c([nH]c3ccccc23)CN1C(=O)Nc1cccc(C)c1 [Example 13, (3R)-3-(N,N-dipentylcarbamoyl)-2-(3-methylphenylcarbamoyl)-1,2,3,4-tetrahydro-9H-pyrido[3,4-b]indole]",> 300
6,"CCOC(=O)c1cccc(NC(=O)[C@H]2Cc3c([nH]c4ccccc34)CN2C(=O)OCc2ccccc2)c1 [Example 16, ethyl 3-N-[(3R)-2-carbobenzoxy-1,2,3,4-tetrahydro-9H-pyrido[3,4-b]indole-3-carboxyl]aminobenzoate]",> 300
7,CCOC(=O)c1ccccc1NC(=O)[C@H]1Cc2c([nH]c3ccccc23)CN1C(=O)OCc1ccccc1 [Example 17],100
8,"O=C(Nc1ccccc1C(=O)N1CCCC1)[C@H]1Cc2c([nH]c3ccccc23)CN1C(=O)c1ccc2ccccc2c1 [Example 20, pyrrolidine-2-N-[(3R)-2-(2-naphthoyl)-1,2,3,4-tetrahydro-9H-pyrido[3,4-b]indole-3-carboxyl]aminobenzamide]",80
9,CCCCN(CCCC)C(=O)c1ccccc1NC(=O)[C@H]1Cc2c([nH]c3ccccc23)CN1C(=O)OCc1ccccc1 [Example 22],> 300
10,"CCOC(=O)c1ccccc1NC(=O)[C@@H]1Cc2c([nH]c3ccccc23)CN1C(=O)OCc1ccccc1 [Example 23, ethyl 2-N-[(3S)-2-carbobenzoxy-1,2,3,4-tetrahydro-9H-pyrido[3,4-b]indole-3-carboxyl]aminobenzoate]",> 300

# Other lines, results leading:
row,IC50 [µM],Compound
1,12,"CC(C)C[C@H](NC(=O)[C@H]1Cc2c([nH]c3ccccc23)CN1)C(=O)N[C@@H](CC(=O)O)C(N)=O [Example 1, N-[(3R)-1,2,3,4-tetrahydro-9H-pyrido[3,4-b]indole-3-carboxyl]-L-leucyl-L-aspartic acid amide]"
2,60,"CC(C)C[C@H](NC(=O)[C@@H]1Cc2c([nH]c3ccccc23)CN1)C(=O)N[C@@H](CC(=O)O)C(N)=O [Example 2, N-[(3S)-1,2,3,4-tetrahydro-9H-pyrido[3,4-b]indole-3-carboxyl]-L-leucyl-L-aspartic acid amide]"
3,59,"O=C(NCC(c1ccccc1)c1ccccc1)[C@H]1Cc2c([nH]c3ccccc23)CN1 [Example 5, (3R)-3-(2,2'-diphenyl)ethylcarbamoyl-1,2,3,4-tetrahydro-9H-pyrido[3,4-b]indole]"
4,25,"CC(C)C[C@H](NC(=O)[C@H]1Cc2c([nH]c3ccccc23)CN1C(=O)c1ccccc1)C(=O)N[C@@H](CC(=O)O)C(N)=O [Example 9, N-[(3R)-2-benzoyl-1,2,3,4-tetrahydro-9H-pyrido[3,4-b]indole-3-carboxyl]-L-leucyl-L-aspartic acid amide]"
5,15,"CC(C)C[C@H](NC(=O)[C@H]1Cc2c([nH]c3ccccc23)CN1C(=O)c1ccc2ccccc2c1)C(=O)N[C@@H](CC(=O)O)C(N)=O [Example 10, N-[(3R)-2-(2-naphthoyl)-1,2,3,4-tetrahydro-9H-pyrido[3,4-b]indole-3-carboxyl]-L-leucyl-L-aspartic acid amide]"
6,4,"Cc1cccc(NC(=O)N2Cc3[nH]c4ccccc4c3C[C@@H]2C(=O)N[C@@H](CC(C)C)C(=O)N[C@@H](CC(=O)O)C(N)=O)c1 [Example 11, N-[(3R)-2-(3-methylphenylcarbamoyl)-1,2,3,4-tetrahydro-9H-pyrido[3,4-b]indole-3-carboxyl]-L-leucyl-L-aspartic acid amide]"
7,29,"Cc1cccc(NC(=O)N2Cc3[nH]c4ccccc4c3C[C@H]2C(=O)N[C@@H](CC(C)C)C(=O)N[C@@H](CC(=O)O)C(N)=O)c1 [Example 12, N-[(3S)-2-(3-methylphenylcarbamoyl)-1,2,3,4-tetrahydro-9H-pyrido[3,4-b]indole-3-carboxyl]-L-leucyl-L-aspartic acid amide]"
8,5.5,"CC(C)C[C@H](NC(=O)[C@H]1Cc2c([nH]c3ccccc23)CN1C(=O)Nc1ccccc1)C(=O)N[C@@H](CC(=O)O)C(N)=O [Example 14, N-[(3R)-2-phenylcarbamoyl-1,2,3,4-tetrahydro-9H-pyrido[3,4-b]indole-3-carboxyl]-L-leucyl-L-aspartic acid amide]"
9,10,"CCOC(=O)c1ccc(NC(=O)[C@H]2Cc3c([nH]c4ccccc34)CN2C(=O)OCc2ccccc2)cc1 [Example 15, ethyl 4-N-[(3R)-2-carbobenzoxy-1,2,3,4-tetrahydro-9H-pyrido[3,4-b]indole-3-carboxyl]aminobenzoate]"
10,55,"O=C(Nc1ccccc1C(=O)N1CCCC1)[C@H]1Cc2c([nH]c3ccccc23)CN1C(=O)OCc1ccccc1 [Example 18, pyrrolidine-2-N-[(3R)-2-carbobenzoxy-1,2,3,4-tetrahydro-9H-pyrido-[3,4-b]indole-3-carboxyl]aminobenzamide]"
11,8,"O=C(Nc1ccccc1C(=O)N1CCCC1)[C@@H]1Cc2c([nH]c3ccccc23)CN1C(=O)OCc1ccccc1 [Example 19, pyrrolidine-2-N-[(3S)-2-carbobenzoxy-1,2,3,4-tetrahydro-9H-pyrido[3,4-b]indole-3-carboxyl]aminobenzamide]"
12,0.77,"CC[C@H](C)[C@H](NC(=O)[C@H]1Cc2c([nH]c3ccccc23)CN1C(=O)Nc1ccc(Cl)c(Cl)c1)C(=O)N[C@@H](CC(=O)O)C(N)=O [Example 24, N-[(3R)-2-(3,4-dichlorophenylcarbamoyl)-1,2,3,4-tetrahydro-9H-pyrido[3,4-b]indol-3-yl]carbonyl-L-isoleucyl-L-aspartic acid amide]"
13,1.3,NC(=O)[C@H](CC(=O)O)NC(=O)C1(NC(=O)[C@H]2Cc3c([nH]c4ccccc34)CN2C(=O)Nc2ccc(Cl)c(Cl)c2)CCCC1 [Example 26]
14,0.41,CC(C)C[C@H](NC(=O)[C@H]1Cc2c([nH]c3ccccc23)CN1C(=O)Nc1ccc(Cl)c(Cl)c1)C(=O)NCCC(=O)O [Example 27]
